Data as given in BindingDB's records for doi:10.1021/jm980217s (Abbott Laboratories, 1998).

Assay: Binding affinity for endothelin B receptor by measuring its ability to displace [125I]-ET-3 from porcine cerebellar tissue

Row | Compound | IC50
1 | C=CCCC[C@H]1[C@H](C(=O)O)[C@@H](c2ccc3c(c2)OCO3)CN1CC(=O)N(CCCC)CCCC [(2S,3R,4S)-4-Benzo[1,3]dioxol-5-yl-1-dibutylcarbamoylmethyl-2-pent-4-enyl-pyrrolidine-3-carboxylic acid] | 60 µM
2 | CCCCC[C@H]1[C@H](C(=O)O)[C@@H](c2ccc3c(c2)OCO3)CN1CC(=O)N(CCCC)CCCC [(2S,3R,4S)-4-Benzo[1,3]dioxol-5-yl-1-dibutylcarbamoylmethyl-2-pentyl-pyrrolidine-3-carboxylic acid] | 47 µM
3 | CCCCN(CCCC)C(=O)CN1C[C@H](c2ccc3c(c2)OCO3)[C@@H](C(=O)O)[C@@H]1CCC=C1CC1 [(2S,3R,4S)-4-Benzo[1,3]dioxol-5-yl-2-(3-cyclopropylidene-propyl)-1-dibutylcarbamoylmethyl-pyrrolidine-3-carboxylic acid] | 10 µM
